In brackets after ≈: the same amount, converted by molar mass. Activity calls are given as the source filed them. The calls are words filed in the database; no cut-off is given here.
Tests used:
[1] = test system: Candida tropicalis; assay: Antifungal activity against Candida tropicalis; type: functional
[2] = test system: DNA; assay: Induction of Escherichia coli supercoiled pBR322 DNA cleavage assessed as increase in formation of linear form of DNA at 250 ug/ml by agarose gel electrophoresis; type: nucleic-acid assay; conditions: dose 250.0 µg/ml
[3] = test system: Escherichia coli; assay: Antibacterial activity against Escherichia coli; type: functional
[4] = test system: Bacillus cereus; assay: Antibacterial activity against Bacillus cereus; type: functional
[5] = test system: Staphylococcus aureus; assay: Antibacterial activity against Staphylococcus aureus; type: functional
[6] = test system: Pseudomonas aeruginosa; assay: Antibacterial activity against Pseudomonas aeruginosa; type: functional
[7] = test system: Enterococcus hirae; assay: Antibacterial activity against Enterococcus hirae; type: functional
[8] = test system: Legionella pneumophila; assay: Antibacterial activity against Legionella pneumophila subsp. pneumophila; type: functional
[9] = test system: Candida albicans; assay: Antifungal activity against Candida albicans; type: functional
[10] = Antioxidant activity assessed as DPPH radical scavenging activity at 10 to 200 ug/ml; type: functional; conditions: dose 10-200 µg/ml
[11] = Antioxidant activity assessed as ferrous ion chelating activity at 200 ug/ml; type: functional; conditions: dose 200.0 µg/ml
[12] = Antioxidant activity assessed as ferrous ion chelating activity at 10 ug/ml; type: functional; conditions: dose 10.0 µg/ml
[13] = Antioxidant activity assessed as DPPH radical scavenging activity at 200 ug/ml relative to control; type: functional; conditions: dose 200.0 µg/ml

SMILES | MIC [1] | Activity [2] | MIC [3] | MIC [4] | MIC [5] | MIC [6] | MIC [7] | MIC [8] | MIC [9] | Activity [10] | Activity [11] | Activity [12] | Activity [13]
O=C(Cn1cc(CCn2cc(C3CCCC3)nn2)nn1)Nc1ccc(NC(=O)Cn2cc(CCn3cc(C4CCCC4)nn3)nn2)cc1 | 4 µg/mL (≈ 6.13 µM) | Active | 128 µg/mL (≈ 196 µM) | 64 µg/mL (≈ 98 µM) | 16 µg/mL (≈ 24.5 µM) | 64 µg/mL (≈ 98 µM) | 4 µg/mL (≈ 6.13 µM) | 128 µg/mL (≈ 196 µM) | 32 µg/mL (≈ 49 µM) | Active | 43.9% | – | –
O=C(Cn1cc(C2CCCC2)nn1)Nc1ccc(NC(=O)Cn2cc(C3CCCC3)nn2)cc1 | 32 µg/mL (≈ 69.2 µM) | Active | 128 µg/mL (≈ 277 µM) | 64 µg/mL (≈ 138 µM) | 64 µg/mL (≈ 138 µM) | 64 µg/mL (≈ 138 µM) | 32 µg/mL (≈ 69.2 µM) | 32 µg/mL (≈ 69.2 µM) | 64 µg/mL (≈ 138 µM) | Active | 67.1% | 20.6% | –
CCOC(=O)c1cn(CCc2cn(CC(=O)Nc3ccc(NC(=O)Cn4cc(CCn5cc(C(=O)OCC)nn5)nn4)cc3)nn2)nn1 | 64 µg/mL (≈ 96.9 µM) | Active | 128 µg/mL (≈ 194 µM) | 32 µg/mL (≈ 48.4 µM) | 32 µg/mL (≈ 48.4 µM) | 64 µg/mL (≈ 96.9 µM) | 64 µg/mL (≈ 96.9 µM) | 32 µg/mL (≈ 48.4 µM) | 128 µg/mL (≈ 194 µM) | Active | 33.5% | – | –
O=C(Cn1cc(CCn2cc(CCc3ccccc3)nn2)nn1)Nc1ccc(NC(=O)Cn2cc(CCn3cc(CCc4ccccc4)nn3)nn2)cc1 | 16 µg/mL (≈ 22.1 µM) | Active | 128 µg/mL (≈ 177 µM) | 128 µg/mL (≈ 177 µM) | 64 µg/mL (≈ 88.3 µM) | 64 µg/mL (≈ 88.3 µM) | 64 µg/mL (≈ 88.3 µM) | 64 µg/mL (≈ 88.3 µM) | 64 µg/mL (≈ 88.3 µM) | Active | 17.3% | – | –
O=C(Cn1cc(CCn2cc(C3CC3)nn2)nn1)Nc1ccc(NC(=O)Cn2cc(CCn3cc(C4CC4)nn3)nn2)cc1 | 64 µg/mL (≈ 107 µM) | Active | 128 µg/mL (≈ 215 µM) | 64 µg/mL (≈ 107 µM) | 64 µg/mL (≈ 107 µM) | 64 µg/mL (≈ 107 µM) | 64 µg/mL (≈ 107 µM) | 32 µg/mL (≈ 53.6 µM) | 128 µg/mL (≈ 215 µM) | Active | 42.8% | – | –
[N-]=[N+]=NCCc1cn(CC(=O)Nc2ccc(NC(=O)Cn3cc(CCN=[N+]=[N-])nn3)cc2)nn1 | 16 µg/mL (≈ 34.4 µM) | Active | 32 µg/mL (≈ 68.9 µM) | 64 µg/mL (≈ 138 µM) | 64 µg/mL (≈ 138 µM) | 64 µg/mL (≈ 138 µM) | 32 µg/mL (≈ 68.9 µM) | 32 µg/mL (≈ 68.9 µM) | 8 µg/mL (≈ 17.2 µM) | Active | 52.8% | – | –
O=C(Cn1cc(-c2ccccc2)nn1)Nc1ccc(NC(=O)Cn2cc(-c3ccccc3)nn2)cc1 | 32 µg/mL (≈ 66.9 µM) | Active | 64 µg/mL (≈ 134 µM) | 64 µg/mL (≈ 134 µM) | 64 µg/mL (≈ 134 µM) | 64 µg/mL (≈ 134 µM) | 128 µg/mL (≈ 267 µM) | 16 µg/mL (≈ 33.4 µM) | 64 µg/mL (≈ 134 µM) | Active | 40.1% | – | –
O=C(Cn1cc(CCBr)nn1)Nc1ccc(NC(=O)Cn2cc(CCBr)nn2)cc1 | 32 µg/mL (≈ 59.2 µM) | Active | 128 µg/mL (≈ 237 µM) | 64 µg/mL (≈ 118 µM) | 64 µg/mL (≈ 118 µM) | 64 µg/mL (≈ 118 µM) | 32 µg/mL (≈ 59.2 µM) | 32 µg/mL (≈ 59.2 µM) | 64 µg/mL (≈ 118 µM) | – | 30.4% | – | 30.5%
O=C(Cn1cc(CC2CCCCC2)nn1)Nc1ccc(NC(=O)Cn2cc(CC3CCCCC3)nn2)cc1 | 32 µg/mL (≈ 61.7 µM) | Active | 4 µg/mL (≈ 7.71 µM) | 64 µg/mL (≈ 123 µM) | 64 µg/mL (≈ 123 µM) | 64 µg/mL (≈ 123 µM) | 8 µg/mL (≈ 15.4 µM) | 16 µg/mL (≈ 30.8 µM) | 16 µg/mL (≈ 30.8 µM) | Active | 33.8% | – | –
OC(Cn1cncn1)(Cn1cncn1)c1ccc(F)cc1F [FLUCONAZOLE] | 0.5 µg/mL (≈ 1.63 µM) | – | – | – | – | – | – | – | 0.5 µg/mL (≈ 1.63 µM) | – | – | – | –
O=C(Cn1cc(CCn2cc(CC3CCCCC3)nn2)nn1)Nc1ccc(NC(=O)Cn2cc(CCn3cc(CC4CCCCC4)nn3)nn2)cc1 | 4 µg/mL (≈ 5.64 µM) | Active | 128 µg/mL (≈ 181 µM) | 64 µg/mL (≈ 90.3 µM) | 64 µg/mL (≈ 90.3 µM) | 64 µg/mL (≈ 90.3 µM) | 16 µg/mL (≈ 22.6 µM) | 32 µg/mL (≈ 45.1 µM) | 8 µg/mL (≈ 11.3 µM) | Active | 48.9% | – | –
CC(C)CCc1cn(CC(=O)Nc2ccc(NC(=O)Cn3cc(CCC(C)C)nn3)cc2)nn1 | 32 µg/mL (≈ 68.6 µM) | Active | 128 µg/mL (≈ 274 µM) | 64 µg/mL (≈ 137 µM) | 64 µg/mL (≈ 137 µM) | 64 µg/mL (≈ 137 µM) | 32 µg/mL (≈ 68.6 µM) | 32 µg/mL (≈ 68.6 µM) | 64 µg/mL (≈ 137 µM) | Active | 70.8% | 22% | –
O=C(Cn1cc(C2CC2)nn1)Nc1ccc(NC(=O)Cn2cc(C3CC3)nn2)cc1 | 64 µg/mL (≈ 157 µM) | Active | 64 µg/mL (≈ 157 µM) | 64 µg/mL (≈ 157 µM) | 128 µg/mL (≈ 315 µM) | 128 µg/mL (≈ 315 µM) | 64 µg/mL (≈ 157 µM) | 128 µg/mL (≈ 315 µM) | 128 µg/mL (≈ 315 µM) | Active | 76.5% | – | –
O=C(Cn1cc(CCn2cc(-c3ccccc3)nn2)nn1)Nc1ccc(NC(=O)Cn2cc(CCn3cc(-c4ccccc4)nn3)nn2)cc1 | 64 µg/mL (≈ 95.7 µM) | Active | 128 µg/mL (≈ 191 µM) | 128 µg/mL (≈ 191 µM) | 64 µg/mL (≈ 95.7 µM) | 64 µg/mL (≈ 95.7 µM) | 16 µg/mL (≈ 23.9 µM) | 32 µg/mL (≈ 47.9 µM) | 64 µg/mL (≈ 95.7 µM) | Active | 27.1% | – | –
O=C(Cn1cc(CCn2cc(CCBr)nn2)nn1)Nc1ccc(NC(=O)Cn2cc(CCn3cc(CCBr)nn3)nn2)cc1 | 32 µg/mL (≈ 43.8 µM) | Active | 128 µg/mL (≈ 175 µM) | 64 µg/mL (≈ 87.6 µM) | 64 µg/mL (≈ 87.6 µM) | 64 µg/mL (≈ 87.6 µM) | 32 µg/mL (≈ 43.8 µM) | 8 µg/mL (≈ 11 µM) | 8 µg/mL (≈ 11 µM) | Active | 45.6% | – | –
CC(C)CCc1cn(CCc2cn(CC(=O)Nc3ccc(NC(=O)Cn4cc(CCn5cc(CCC(C)C)nn5)nn4)cc3)nn2)nn1 | 32 µg/mL (≈ 48.7 µM) | Active | 128 µg/mL (≈ 195 µM) | 128 µg/mL (≈ 195 µM) | 32 µg/mL (≈ 48.7 µM) | 32 µg/mL (≈ 48.7 µM) | 16 µg/mL (≈ 24.4 µM) | 16 µg/mL (≈ 24.4 µM) | 64 µg/mL (≈ 97.4 µM) | – | 44.9% | – | 21.9%
CCOC(=O)c1cn(CC(=O)Nc2ccc(NC(=O)Cn3cc(C(=O)OCC)nn3)cc2)nn1 | 32 µg/mL (≈ 68 µM) | Active | 128 µg/mL (≈ 272 µM) | 64 µg/mL (≈ 136 µM) | 32 µg/mL (≈ 68 µM) | 64 µg/mL (≈ 136 µM) | 64 µg/mL (≈ 136 µM) | 64 µg/mL (≈ 136 µM) | 64 µg/mL (≈ 136 µM) | Active | 46.5% | – | –
CC1(C)S[C@@H]2[C@H](NC(=O)[C@H](N)c3ccccc3)C(=O)N2[C@H]1C(=O)O [AMPICILLIN] | – | – | 0.5 µg/mL (≈ 1.43 µM) | 1 µg/mL (≈ 2.86 µM) | 1 µg/mL (≈ 2.86 µM) | 0.5 µg/mL (≈ 1.43 µM) | 0.5 µg/mL (≈ 1.43 µM) | 0.5 µg/mL (≈ 1.43 µM) | – | – | – | – | –
O=C(Cn1cc(CCc2ccccc2)nn1)Nc1ccc(NC(=O)Cn2cc(CCc3ccccc3)nn2)cc1 | 64 µg/mL (≈ 120 µM) | Active | 128 µg/mL (≈ 239 µM) | 32 µg/mL (≈ 59.9 µM) | 32 µg/mL (≈ 59.9 µM) | 16 µg/mL (≈ 29.9 µM) | 64 µg/mL (≈ 120 µM) | 64 µg/mL (≈ 120 µM) | 64 µg/mL (≈ 120 µM) | Active | 41.4% | – | –

Reference: ChEMBL document CHEMBL5131406, “New bis- and tetrakis-1,2,3-triazole derivatives: Synthesis, DNA cleavage, molecular docking, antimicrobial, antioxidant activity and acid dissociation constants” (2022)
